Assays:
Type in all cases: in vivo
[1] = tested on: barnyardgrass (Echinochloa crus-galli); assay: Test C flooded paddy test; settings: for Barnyardgrass plant response rating: Flooded Paddy, scale 0 to 100, 0 no effect, 100 complete control; for Plant response rating, Barnyardgrass: flooded paddy test, scale 0 to 100 (0 no effect, 100 complete control)
Outline: (§1)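 Ratings come from visual comparison with control plants after 12 to 14 days in the greenhouse. Each species was at the 2-leaf stage when the flooded paddy was treated. Scores run from 0, meaning no effect, to 100, meaning complete control.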

[2] = tested on: duck salad (Heteranthera limosa); assay: Test C flooded paddy test; settings: for Ducksalad plant response rating: Flooded Paddy, scale 0 to 100, 0 no effect, 100 complete control; for Plant response rating, Ducksalad: flooded paddy test, scale 0 to 100 (0 no effect, 100 complete control)
Outline: as §1

[3] = tested on: smallflower flatsedge (Cyperus difformis); assay: Test C flooded paddy test; settings: for Flatsedge plant response rating: Flooded Paddy, scale 0 to 100, 0 no effect, 100 complete control; for Plant response rating, Flatsedge: flooded paddy test, scale 0 to 100 (0 no effect, 100 complete control)
Outline: as §1

[4] = tested on: morningglory (Ipomoea hederacea); assay: Test C preemergence
Text: (§2) Seeds of plant species selected from bermudagrass (Cynodon dactylon), Surinam grass (Brachiaria decumbens), cocklebur (Xanthium strumarium), corn (Zea mays), crabgrass (Digitaria sanguinalis), woolly cupgrass (Eriochloa villosa), giant foxtail (Setaria faberii), goosegrass (Eleusine indica), johnsongrass (Sorghum halepense), kochia (Kochia scoparia), lambsquarters (Chenopodium album), morningglory (Ipomoea hederacea), yellow nutsedge (Cyperus esculentus), pigweed (Amaranthus retroflexus), common ragweed (Ambrosia elatior), soybean (Glycine max) and velvetleaf (Abutilon theophrasti) were planted and treated preemergence with test chemicals formulated in a non-phytotoxic solvent mixture which included a surfactant.
(§3) At the same time, plants selected from these crop and weed species and also winter barley (Hordeum vulgare), blackgrass (Alopecurus myosuroides), canary grass (Phalaris minor), chickweed (Stellaria media), downy brome (Bromus tectorum), green foxtail (Setaria viridis), Italian ryegrass (Lolium multiflorum), wheat (Triticum aestivum), wild oat (Avena fatua) and windgrass (Apera spica-venti) were treated with postemergence applications of some of the test chemicals formulated in the same manner. Plants ranged in height from 2 to 18 cm (1- to 4-leaf stage) for postemergence treatments. Plant species in the flooded paddy test consisted of rice (Oryza saliva), smallflower flatsedge (Cyperus difformis), duck salad (Heteranthera limosa) and barnyardgrass (Echinochloa crus-galli) grown to the 2-leaf stage for testing. Treated plants and controls were maintained in a greenhouse for 12 to 14 days, after which time all species were compared to controls and visually evaluated. Plant response ratings, summarized in Table C, are based on a scale of 0 to 100 where 0 is no effect and 100 is complete control. A dash (-) response means no test result.

[5] = tested on: yellow nutsedge (Cyperus esculentus); assay: Test C preemergence
Text: as §2, §3

[6] = tested on: johnsongrass (Sorghum halepense); assay: Test C preemergence
Text: as §2, §3

[7] = tested on: bermudagrass (Cynodon dactylon); assay: Test C preemergence
Text: as §2, §3

[8] = tested on: corn (Zea mays); assay: Test C preemergence
Text: as §2, §3

[9] = tested on: pigweed (Amaranthus retroflexus); assay: Test C preemergence
Text: as §2, §3

[10] = tested on: soybean (Glycine max); assay: Test C preemergence
Text: as §2, §3

[11] = tested on: woolly cupgrass (Eriochloa villosa); assay: Test C preemergence
Text: as §2, §3

[12] = tested on: Sunflower; assay: Test C preemergence; settings: scale 0 to 100, 0 no effect, 100 complete control
Text: as §2, §3

[13] = tested on: Nightshade; assay: Test C preemergence
Text: as §2, §3

[14] = tested on: giant foxtail (Setaria faberii); assay: Test C preemergence
Text: as §2, §3

[15] = tested on: goosegrass (Eleusine indica); assay: Test C preemergence
Text: as §2, §3

[16] = tested on: cocklebur (Xanthium strumarium); assay: Test C preemergence
Text: as §2, §3

[17] = tested on: kochia (Kochia scoparia); assay: Test C preemergence
Text: as §2, §3

[18] = tested on: lambsquarters (Chenopodium album); assay: Test C preemergence
Text: as §2, §3

[19] = tested on: crabgrass (Digitaria sanguinalis); assay: Test C preemergence
Text: as §2, §3

[20] = tested on: velvetleaf (Abutilon theophrasti); assay: Test C preemergence
Text: as §2, §3

[21] = tested on: Surinam grass (Brachiaria decumbens); assay: Test C preemergence
Text: as §2, §3

[22] = Rate 62 g/ha, scale 0 to 100, 0 no effect, 100 complete control
[23] = preemergence, Rate 16 g/ha, scale 0 to 100
[24] = preemergence, Rate 31 g/ha, scale 0 to 100
[25] = preemergence, Rate 125 g/ha, scale 0 to 100, 0 no effect, 100 complete control
[26] = Rate 125 g/ha, scale 0 to 100, 0 no effect, 100 complete control
[27] = preemergence, Rate 62 g/ha, scale 0 to 100
[28] = preemergence, Rate 250 g/ha, scale 0 to 100, 0 no effect, 100 complete control

CC(C)(C)c1ccn(C2CCN(c3cccc(Cl)c3)C2=O)n1 (stereo not drawn) [Compound 43]
Barnyardgrass plant response rating ([1]; Rate 250 g/ha): 100
Barnyardgrass plant response rating ([1]; Rate 500 g/ha): 100
Plant response rating, Barnyardgrass ([1]; Rate 62 g/ha): 30
Plant response rating, Barnyardgrass ([1]; Rate 125 g/ha): 80
Ducksalad plant response rating ([2]; Rate 250 g/ha): 30
Ducksalad plant response rating ([2]; Rate 500 g/ha): 80
Plant response rating, Ducksalad ([2]; Rate 62 g/ha): 0
Plant response rating, Ducksalad ([2]; Rate 125 g/ha): 20
Flatsedge plant response rating ([3]; Rate 250 g/ha): 100
Flatsedge plant response rating ([3]; Rate 500 g/ha): 100
Plant response rating, Flatsedge ([3]; Rate 62 g/ha): 90
Plant response rating, Flatsedge ([3]; Rate 125 g/ha): 100
Plant response rating, Morningglory [4, 22]: 0
Plant response rating, Morningglory [4, 23]: 0
Plant response rating, Morningglory [4, 24]: 0
Plant response rating, Morningglory [4, 25]: 0
Plant response rating, Nutsedge [5, 22]: 0
Plant response rating, Nutsedge [5, 23]: 0
Plant response rating, Nutsedge [5, 24]: 0
Plant response rating, Nutsedge [5, 25]: 30
Plant response rating, Johnsongrass [6, 22]: 0
Plant response rating, Johnsongrass [6, 23]: 0
Plant response rating, Johnsongrass [6, 24]: 0
Plant response rating, Johnsongrass [6, 25]: 50
Plant response rating, Bermudagrass [7, 22]: 50
Plant response rating, Bermudagrass [7, 23]: 20
Plant response rating, Bermudagrass [7, 24]: 40
Plant response rating, Bermudagrass [7, 25]: 60
Plant response rating, Corn [8, 22]: 0
Plant response rating, Corn [8, 23]: 0
Plant response rating, Corn [8, 24]: 0
Plant response rating, Corn [8, 25]: 0
Plant response rating, Pigweed [9, 22]: 100
Plant response rating, Pigweed [9, 23]: 20
Plant response rating, Pigweed [9, 24]: 100
Plant response rating, Pigweed [9, 25]: 0
Plant response rating, Soybean [10, 22]: 0
Plant response rating, Soybean [10, 23]: 0
Plant response rating, Soybean [10, 24]: 0
Plant response rating, Soybean [10, 25]: 40
Plant response rating, Cupgrass, Woolly [11, 22]: 30
Plant response rating, Cupgrass, Woolly [11, 23]: 0
Plant response rating, Cupgrass, Woolly [11, 24]: 0
Plant response rating, Cupgrass, Woolly [11, 25]: 30
Plant response rating, Sunflower ([12]; Rate 62 g/ha): 0
Plant response rating, Nightshade ([13]; Rate 16 g/ha, scale 0 to 100): 0
Plant response rating, Nightshade ([13]; Rate 31 g/ha, scale 0 to 100): 0
Plant response rating, Nightshade ([13]; Rate 62 g/ha; scale 0 to 100, 0 no effect, 100 complete control): 0
Plant response rating, Nightshade [13, 26]: 0
Plant response rating, Foxtail, Giant [14, 22]: 0
Plant response rating, Foxtail, Giant [14, 23]: 0
Plant response rating, Foxtail, Giant [14, 24]: 0
Plant response rating, Foxtail, Giant [14, 25]: 0
Plant response rating, Goosegrass [15, 22]: 50
Plant response rating, Goosegrass [15, 23]: 0
Plant response rating, Goosegrass [15, 24]: 0
Plant response rating, Goosegrass [15, 25]: 90
Plant response rating, Cocklebur [16, 22]: 100
Plant response rating, Cocklebur [16, 23]: 0
Plant response rating, Cocklebur [16, 24]: 20
Plant response rating, Cocklebur [16, 25]: 100
Plant response rating, Kochia [17, 22]: 90
Plant response rating, Kochia [17, 23]: 20
Plant response rating, Kochia [17, 24]: 70
Plant response rating, Kochia [17, 25]: 100
Plant response rating, Lambsquarters [18, 22]: 100
Plant response rating, Lambsquarters [18, 23]: 100
Plant response rating, Lambsquarters [18, 24]: 100
Plant response rating, Lambsquarters [18, 25]: 100
Plant response rating, Crabgrass [19, 22]: 40
Plant response rating, Crabgrass [19, 23]: 0
Plant response rating, Crabgrass [19, 24]: 20
Plant response rating, Crabgrass [19, 25]: 90
Plant response rating, Velvetleaf [20, 22]: 0
Plant response rating, Velvetleaf [20, 23]: 0
Plant response rating, Velvetleaf [20, 24]: 0
Plant response rating, Velvetleaf [20, 25]: 0
Plant response rating, Surinam grass [21, 22]: 0
Plant response rating, Surinam grass [21, 23]: 0
Plant response rating, Surinam grass [21, 24]: 0
Plant response rating, Surinam grass [21, 25]: 0

CC(C)(C)c1ccn(C2CCN(c3cccc([S+]([O-])C(F)(F)F)c3)C2=O)n1 (stereo not drawn) [Compound 101]
Barnyardgrass plant response rating ([1]; Rate 250 g/ha): 50
Barnyardgrass plant response rating ([1]; Rate 500 g/ha): 90
Plant response rating, Barnyardgrass ([1]; Rate 62 g/ha): 0
Plant response rating, Barnyardgrass ([1]; Rate 125 g/ha): 40
Ducksalad plant response rating ([2]; Rate 250 g/ha): 100
Ducksalad plant response rating ([2]; Rate 500 g/ha): 100
Plant response rating, Ducksalad ([2]; Rate 62 g/ha): 0
Plant response rating, Ducksalad ([2]; Rate 125 g/ha): 90
Flatsedge plant response rating ([3]; Rate 250 g/ha): 90
Flatsedge plant response rating ([3]; Rate 500 g/ha): 100
Plant response rating, Flatsedge ([3]; Rate 62 g/ha): 20
Plant response rating, Flatsedge ([3]; Rate 125 g/ha): 90
Plant response rating, Morningglory [4, 26]: 0
Plant response rating, Morningglory [4, 24]: 0
Plant response rating, Morningglory [4, 27]: 0
Plant response rating, Morningglory [4, 28]: 100
Plant response rating, Nutsedge [5, 26]: 0
Plant response rating, Nutsedge [5, 24]: 0
Plant response rating, Nutsedge [5, 27]: 0
Plant response rating, Nutsedge [5, 28]: 0
Plant response rating, Johnsongrass [6, 26]: 40
Plant response rating, Johnsongrass [6, 24]: 0
Plant response rating, Johnsongrass [6, 27]: 10
Plant response rating, Johnsongrass [6, 28]: 90
Plant response rating, Bermudagrass [7, 26]: 100
Plant response rating, Bermudagrass [7, 24]: 40
Plant response rating, Bermudagrass [7, 27]: 40
Plant response rating, Bermudagrass [7, 28]: 100
Plant response rating, Corn [8, 26]: 0
Plant response rating, Corn [8, 24]: 0
Plant response rating, Corn [8, 27]: 0
Plant response rating, Corn [8, 28]: 60
Plant response rating, Pigweed [9, 26]: 0
Plant response rating, Pigweed [9, 24]: 0
Plant response rating, Pigweed [9, 27]: 0
Plant response rating, Pigweed [9, 28]: 10
Plant response rating, Soybean [10, 26]: 0
Plant response rating, Soybean [10, 24]: 0
Plant response rating, Soybean [10, 27]: 0
Plant response rating, Soybean [10, 28]: 50
Plant response rating, Cupgrass, Woolly [11, 26]: 20
Plant response rating, Cupgrass, Woolly [11, 24]: 0
Plant response rating, Cupgrass, Woolly [11, 27]: 0
Plant response rating, Cupgrass, Woolly [11, 28]: 100
Plant response rating, Sunflower ([12]; Rate 125 g/ha): 0
Plant response rating, Nightshade ([13]; Rate 31 g/ha, scale 0 to 100): 0
Plant response rating, Nightshade ([13]; Rate 62 g/ha, scale 0 to 100): 0
Plant response rating, Nightshade ([13]; Rate 125 g/ha; scale 0 to 100, 0 no effect, 100 complete control): 90
Plant response rating, Nightshade ([13]; Rate 250 g/ha, scale 0 to 100, 0 no effect, 100 complete control): 100
Plant response rating, Foxtail, Giant [14, 26]: 40
Plant response rating, Foxtail, Giant [14, 24]: 0
Plant response rating, Foxtail, Giant [14, 27]: 40
Plant response rating, Foxtail, Giant [14, 28]: 100
Plant response rating, Goosegrass [15, 26]: 100
Plant response rating, Goosegrass [15, 24]: 10
Plant response rating, Goosegrass [15, 27]: 100
Plant response rating, Goosegrass [15, 28]: 100
Plant response rating, Cocklebur [16, 26]: 0
Plant response rating, Cocklebur [16, 24]: 0
Plant response rating, Cocklebur [16, 27]: 0
Plant response rating, Cocklebur [16, 28]: 50
Plant response rating, Kochia [17, 26]: 0
Plant response rating, Kochia [17, 24]: 0
Plant response rating, Kochia [17, 27]: 0
Plant response rating, Kochia [17, 28]: 0
Plant response rating, Lambsquarters [18, 26]: 100
Plant response rating, Lambsquarters [18, 24]: 0
Plant response rating, Lambsquarters [18, 27]: 0
Plant response rating, Lambsquarters [18, 28]: 100
Plant response rating, Crabgrass [19, 26]: 100
Plant response rating, Crabgrass [19, 24]: 90
Plant response rating, Crabgrass [19, 27]: 100
Plant response rating, Crabgrass [19, 28]: 100
Plant response rating, Velvetleaf [20, 26]: 50
Plant response rating, Velvetleaf [20, 24]: 20
Plant response rating, Velvetleaf [20, 27]: 20
Plant response rating, Velvetleaf [20, 28]: 90
Plant response rating, Surinam grass [21, 26]: 20
Plant response rating, Surinam grass [21, 24]: 0
Plant response rating, Surinam grass [21, 27]: 0
Plant response rating, Surinam grass [21, 28]: 40
